The source of these data is ChEMBL document CHEMBL1131160, “5-Substituted pyrimidines with a 1,5-anhydro-2, 3-dideoxy-D-arabino-hexitol moiety at N-1: synthesis, antiviral activity, conformational analysis, and interaction with viral thymidine kinase” (1998).

Molecules are shown by their SMILES. In brackets after ≈: the same amount, converted by molar mass.

Experiment [1] deals with E6SM. Description: Compound was evaluated for the minimum inhibition concentration required to reduce virus-induced cytopathogenicity by 50%, determined against HSV-1 (TK-B2006) virus. Type of experiment: functional. Particulars: Homo sapiens.
Experiment [2] concerns E6SM. Description: Compound was evaluated for the minimum inhibition concentration required to reduce virus-induced cytopathogenicity by 50%, determined against HSV-2 virus as means of G, 196, and Lyons strains. Type of experiment: functional. Particulars: Homo sapiens. A general note: Protection from cytopathic effect is a common read-out in antiviral testing.
For experiment [3], the system named is E6SM. The experiment can be described thus: Compound was evaluated for the minimum cytotoxic concentration required to cause a microscopically detectable alteration of normal cell morphology. It counts as functional. Particulars: Homo sapiens.
Experiment [4] concerns E6SM. The experiment can be described thus: Compound was evaluated for the minimum inhibition concentration required to reduce virus-induced cytopathogenicity by 50%, determined against KOS,F,McIntyre strains of HSV-1 virus. Type of experiment: functional. Particulars: Homo sapiens.
Experiment [5] relates to Human cytomegalovirus (AD-169). The experiment can be described thus: Compound was evaluated for the minimum inhibition concentration required to reduce virus-induced cytopathogenicity by 50%, determined against Cytomegalovirus (AD-169) in HEL cells.

In the case of `Nc1nc2c(ncn2COCCO)c(=O)[nH]1` [ACYCLOVIR], the results for the MIC in experiment [1], in experiment [2] and in experiment [4] were 1.92 µg/mL (≈ 8.53 µM), 0.38 µg/mL (≈ 1.69 µM) and 0.075 µg/mL (≈ 0.333 µM), respectively. For the same compound, the MCC in experiment [3] is over 200 µg/mL.
Regarding `C=Cc1cn(C2COC(CO)C(O)C2)c(=O)[nH]c1=O` (configuration not stated), the MIC was 240 µg/mL (≈ 895 µM) in experiment [1], over 50 µg/mL in experiment [5], 9.6 µg/mL (≈ 35.8 µM) in experiment [2] and 0.075 µg/mL (≈ 0.28 µM) in experiment [4]. In addition, the MCC in experiment [3] is over 400 µg/mL.
Taken in the same sequence, the figures for `O=c1[nH]c(=O)n(C2COC(CO)C(O)C2)cc1Cl` (configuration not stated) were over 400 µg/mL, over 50 µg/mL, over 400 µg/mL, over 400 µg/mL and over 400 µg/mL.
The like results for `O=c1[nH]c(=O)n(C2COC(CO)C(O)C2)cc1-c1cccs1` (configuration not stated) were, in that order, 240 µg/mL (≈ 740 µM), over 50 µg/mL, 240 µg/mL (≈ 740 µM), 240 µg/mL (≈ 740 µM) and over 400 µg/mL.
For `C#Cc1cn(C2COC(CO)C(O)C2)c(=O)[nH]c1=O` (configuration not stated), the MIC in experiment [1] was over 400 µg/mL; in experiment [5] it was over 50 µg/mL; in experiment [2] it was over 400 µg/mL; in experiment [4], 48 µg/mL (≈ 180 µM).
For the compound `O=c1[nH]c(=O)n(C2COC(CO)C(O)C2)cc1C(F)(F)F` (configuration not stated), the MIC is 9.8 µg/mL (≈ 31.6 µM) in experiment [1], over 50 µg/mL in experiment [5], 0.38 µg/mL (≈ 1.22 µM) in experiment [2] and 0.025 µg/mL (≈ 0.0806 µM) in experiment [4]. This compound also displayed an MCC in experiment [3] of over 400 µg/mL.
Taken in the same sequence, the figures for `O=c1[nH]c(=O)n(C2COC(CO)C(O)C2)cc1I` (configuration not stated) were over 400 µg/mL, over 40 µg/mL, 0.5 µg/mL (≈ 1.36 µM), 0.025 µg/mL (≈ 0.0679 µM) and over 400 µg/mL.
For the compound `O=c1[nH]c(=O)n([C@H]2C[C@H](O)[C@@H](CO)O2)cc1/C=C/Br` [BRIVUDINE], the figures for the MIC in experiment [1], in experiment [2] and in experiment [4] were 3.2 µg/mL (≈ 9.61 µM), over 80 µg/mL and 0.015 µg/mL (≈ 0.045 µM), respectively. In experiment [3], this compound returned an MCC of over 200 µg/mL.
Turning to `CC#Cc1cn(C2COC(CO)C(O)C2)c(=O)[nH]c1=O` (configuration not stated), the MIC is 48 µg/mL (≈ 171 µM) in experiment [1], over 50 µg/mL in experiment [5], 16 µg/mL (≈ 57.1 µM) in experiment [2] and 0.38 µg/mL (≈ 1.36 µM) in experiment [4]. Further, the MCC in experiment [3] is over 400 µg/mL.
